Experimental data as given in ChEMBL document CHEMBL5344424, “3-Hydroxypyridin-4(1H)-one Derivatives as pqs Quorum Sensing Inhibitors Attenuate Virulence and Reduce Antibiotic Resistance in Pseudomonas aeruginosa” (J Med Chem, 2023).
Active and inactive are the calls of the source. No cut-off for these calls is given here.

Key:
Pseudomonas aeruginosa [1] = assay: Antibacterial activity against Pseudomonas aeruginosa PAO1 infected in Caenorhabditis elegans assessed as worm survival rate at 2.5 ug/ml incubated for 60 hrs by bright-field microscopy relative to control; assay type: functional
Pseudomonas aeruginosa [2] = assay: Synergistic antibacterial activity against Pseudomonas aeruginosa PAO1 infected in Caenorhabditis elegans assessed as worm survival rate at 2.5 ug/ml incubated for 72 hrs in presence of compound 16e by bright-field microscopy relative to control; assay type: functional
Pseudomonas aeruginosa [3] = assay: Anti-motility activity against Pseudomonas aeruginosa PAO1 assessed as reduction in swimming incubated for 16 hrs by crystal violet staining analysis; assay type: functional, organism-based
Pseudomonas aeruginosa [4] = assay: Synergistic antibacterial activity against Pseudomonas aeruginosa PAO1 infected in Caenorhabditis elegans assessed as worm survival rate at 10 uM incubated for 72 hrs in presence of tobramycin by bright-field microscopy relative to control; assay type: functional
Pseudomonas aeruginosa [5] = assay: Synergistic antibacterial activity against Pseudomonas aeruginosa clinical isolate FB assessed as reduction in bacterial viability at 10 uM incubated for 24 hrs in presence of tobramycin at 1/2 to 1/8 times of MIC; assay type: functional, organism-based
Pseudomonas aeruginosa [6] = assay: Antivirulence activity against Pseudomonas aeruginosa clinical isolate 1121 assessed as reduction of pyocyanin production at 10 uM incubated for 24 hrs by optical density based analysis relative to control; assay type: functional; set-up: scale not given: the % may be the effect or the level left
Pseudomonas aeruginosa [7] = assay: Antibacterial activity against Pseudomonas aeruginosa PAO1 infected in Caenorhabditis elegans assessed as increase in worm survival by measuring survival time at 50 uM by bright-field microscopy; assay type: functional
[8] = Inhibition of quorum sensing system in Pseudomonas aeruginosa PAO1 transfected with pqsA-gfp reporter assessed as decrease in GFP fluorescence expression incubated for 16 hrs by microplate reader assay
[9] = Inhibition of quorum sensing system in Pseudomonas aeruginosa PAO1 assessed as inhibition of elastase production at 10 uM incubated for 24 hrs by elastin-congo red dye based optical density based analysis relative to control
Pseudomonas aeruginosa [10] = assay: Synergistic antibacterial activity against Pseudomonas aeruginosa PAO1 assessed as reduction in bacterial viability at 10 uM incubated for 24 hrs in presence of tobramycin at 1/2 to 1/8 times of MIC; assay type: functional, organism-based
Pseudomonas aeruginosa [11] = assay: Synergistic antibacterial activity against Pseudomonas aeruginosa clinical isolate 1167 assessed as reduction in bacterial viability at 10 uM incubated for 24 hrs in presence of ciprofloxacin at 1/2 to 1/8 times of MIC; assay type: functional, organism-based
Pseudomonas aeruginosa [12] = assay: Synergistic antibacterial activity against Pseudomonas aeruginosa PAO1 infected in Caenorhabditis elegans assessed as worm survival rate at 50 uM incubated for 72 hrs in presence of ciprofloxacin by bright-field microscopy relative to control; assay type: functional
Pseudomonas aeruginosa [13] = assay: Inhibition of iron homeostasis in Pseudomonas aeruginosa PAO1 assessed as decrease in pyochelin production at 1.25 to 20 uM incubated for 24 hrs by fluorescence based microplate reader analysis; assay type: functional, organism-based; conditions: dose 1.25-20 µM
[14] = Inhibition of quorum sensing system in Pseudomonas aeruginosa PAO1 assessed as inhibition of rhamnolipid production at 0.625 to 20 uM incubated for 24 hrs by optical density based analysis; conditions: dose 0.625-20 µM
[15] = Inhibition of quorum sensing system in Pseudomonas aeruginosa PAO1 transfected with lasB-gfp reporter assessed as decrease in GFP fluorescence expression at 0.625 to 10 uM incubated for 16 hrs by microplate reader assay; conditions: dose 0.625-10 µM
Vero [16] = assay: Cytotoxicity against African green monkey Vero cells at 100 uM incubated for 24 hrs by MTT assay; assay type: toxicity, cell-based; conditions: chlorocebus sabaeus
Pseudomonas aeruginosa [17] = assay: Antibacterial activity against Pseudomonas aeruginosa PAO1 infected in Caenorhabditis elegans assessed as worm survival rate at 0.125 ug/ml incubated for 72 hrs by bright-field microscopy relative to control; assay type: functional
[18] = Toxicity in Caenorhabditis elegans assessed as effect on survival at 100 uM incubated for 60 hrs by bright-field microscopy
Pseudomonas aeruginosa [19] = assay: Anti-motility activity against Pseudomonas aeruginosa PAO1 assessed as reduction in twitching incubated for 16 hrs by crystal violet staining analysis; assay type: functional, organism-based
[20] = Inhibition of quorum sensing system in Pseudomonas aeruginosa PAO1 assessed as inhibition of pyocyanin production at 10 uM incubated for 24 hrs by optical density based analysis relative to control
Pseudomonas aeruginosa [21] = assay: Synergistic antibacterial activity against Pseudomonas aeruginosa clinical isolate FB assessed as reduction in bacterial viability at 10 uM incubated for 24 hrs in presence of ciprofloxacin at 1/2 to 1/8 times of MIC; assay type: functional, organism-based
Pseudomonas aeruginosa [22] = assay: Synergistic antibacterial activity against Pseudomonas aeruginosa clinical isolate 1121 assessed as reduction in bacterial viability at 10 uM incubated for 24 hrs in presence of ciprofloxacin at 1/2 to 1/8 times of MIC; assay type: functional, organism-based
Vero [23] = assay: Cytotoxicity against African green monkey Vero cells at 1.56 to 50 uM incubated for 24 hrs by MTT assay; assay type: toxicity, cell-based; conditions: chlorocebus sabaeus, dose 1.56-50 µM
Pseudomonas aeruginosa [24] = assay: Synergistic antibacterial activity against Pseudomonas aeruginosa PAO1 infected in Caenorhabditis elegans assessed as worm survival rate at 50 uM incubated for 72 hrs in presence of tobramycin by bright-field microscopy relative to control; assay type: functional
Pseudomonas aeruginosa [25] = assay: Synergistic antibacterial activity against Pseudomonas aeruginosa PAO1 assessed as reduction in bacterial viability at 10 uM incubated for 24 hrs in presence of ciprofloxacin at 1/2 to 1/8 times of MIC; assay type: functional, organism-based
[26] = Metal chelating activity assessed as compound-Fe3+ complex formation by measuring fluorescence signal by fluorescence spectrophotometry
Pseudomonas aeruginosa [27] = assay: Anti-motility activity against Pseudomonas aeruginosa PAO1 assessed as reduction in swarming incubated for 16 hrs by crystal violet staining analysis; assay type: functional, organism-based
[28] = Binding affinity to recombinant PqsR LBD (94 to 332 residues) (unknown origin) expressed in Escherichia coli BL21 (DE3) assessed as dissociation constant by isothermal titration calorimetry
Pseudomonas aeruginosa [29] = assay: Synergistic antibacterial activity against Pseudomonas aeruginosa clinical isolate 1129 assessed as reduction in bacterial viability at 10 uM incubated for 24 hrs in presence of tobramycin at 1/2 to 1/8 times of MIC; assay type: functional, organism-based
[30] = Inhibition of quorum sensing system in Pseudomonas aeruginosa PAO1 assessed as inhibition of pyocyanin production at 0.625 uM incubated for 24 hrs by optical density based analysis relative to control
Pseudomonas aeruginosa [31] = assay: Synergistic antibacterial activity against Pseudomonas aeruginosa clinical isolate 1121 assessed as reduction in bacterial viability at 10 uM incubated for 24 hrs in presence of tobramycin at 1/2 to 1/8 times of MIC; assay type: functional, organism-based
Pseudomonas aeruginosa [32] = assay: Antibacterial activity against Pseudomonas aeruginosa PAO1 assessed as inhibition of biofilm formation incubated for 24 hrs by crystal violet staining analysis; assay type: functional, organism-based
[33] = Inhibition of quorum sensing system in Pseudomonas aeruginosa PAO1 transfected with GFP reporter assessed as decrease in GFP fluorescence expression at 1.25 to 10 uM incubated for 16 hrs by microplate reader assay; conditions: dose 1.25-10 µM
[34] = Inhibition of quorum sensing system in Pseudomonas aeruginosa PAO1 transfected with rhlA-gfp reporter assessed as decrease in GFP fluorescence expression at 0.625 to 10 uM incubated for 16 hrs by microplate reader assay; conditions: dose 0.625-10 µM
Pseudomonas aeruginosa [35] = assay: Synergistic antibacterial activity against Pseudomonas aeruginosa clinical isolate 1167 assessed as reduction in bacterial viability at 10 uM incubated for 24 hrs in presence of tobramycin at 1/2 to 1/8 times of MIC; assay type: functional, organism-based
Pseudomonas aeruginosa [36] = assay: Synergistic antibacterial activity against Pseudomonas aeruginosa PAO1 infected in Caenorhabditis elegans assessed as worm survival rate at 10 uM incubated for 72 hrs in presence of ciprofloxacin by bright-field microscopy relative to control; assay type: functional
Pseudomonas aeruginosa [37] = assay: Antibacterial activity against Pseudomonas aeruginosa PAO1 assessed as inhibition of biofilm formation at 50 uM incubated for 24 hrs by crystal violet staining analysis relative to control; assay type: functional; set-up: scale not given: the % may be the effect or the level left
Pseudomonas aeruginosa [38] = assay: Antivirulence activity against Pseudomonas aeruginosa clinical isolate FB assessed as reduction of pyocyanin production at 10 uM incubated for 24 hrs by optical density based analysis relative to control; assay type: functional; set-up: scale not given: the % may be the effect or the level left
Pseudomonas aeruginosa [39] = assay: Synergistic antibacterial activity against Pseudomonas aeruginosa clinical isolate 1129 assessed as reduction in bacterial viability at 10 uM incubated for 24 hrs in presence of ciprofloxacin at 1/2 to 1/8 times of MIC; assay type: functional, organism-based
Pseudomonas aeruginosa [40] = assay: Inhibition of iron homeostasis in Pseudomonas aeruginosa PAO1 assessed as decrease in pyoverdine production at 5 to 20 uM incubated for 24 hrs by fluorescence based microplate reader analysis; assay type: functional, organism-based; conditions: dose 5-20 µM
Pseudomonas aeruginosa [41] = assay: Antivirulence activity against Pseudomonas aeruginosa PA14 assessed as reduction of pyocyanin production at 10 uM incubated for 24 hrs by optical density based analysis relative to control; assay type: functional; set-up: scale not given: the % may be the effect or the level left
[42] = Inhibition of quorum sensing system in Pseudomonas aeruginosa PAO1 assessed as inhibition of pyocyanin production incubated for 24 hrs by optical density based analysis
Pseudomonas aeruginosa [43] = assay: Antibacterial activity against Pseudomonas aeruginosa PAO1 infected in Caenorhabditis elegans assessed as increase in worm survival by measuring survival time at 10 uM by bright-field microscopy; assay type: functional

Compound: NC[C@H]1O[C@H](O[C@H]2[C@H](O)[C@@H](O[C@H]3O[C@H](CO)[C@@H](O)[C@H](N)[C@H]3O)[C@H](N)C[C@@H]2N)[C@H](N)C[C@@H]1O [TOBRAMYCIN]
- survival at 2.5 µg/mL (Pseudomonas aeruginosa [1]): 18.1%
- survival at 2.5 µg/mL (Pseudomonas aeruginosa [2]): 46.7%

Compound: Cc1cc(=O)c(O)c(CNCc2cn(-c3ccc(Oc4ccccc4)cc3)nn2)n1C
- Activity (Pseudomonas aeruginosa [3]): Dose-Dependent Effect
- survival at 10 µM (Pseudomonas aeruginosa [4]): 46.7%
- Activity (Pseudomonas aeruginosa [5]): Active
- Activity (Pseudomonas aeruginosa [6]): 41.1%
- Survival (Pseudomonas aeruginosa [7]): 36 h
- IC50 [8]: 3700 nM
- inhibition [9]: 26.7%
- Activity (Pseudomonas aeruginosa [10]): Active
- Activity (Pseudomonas aeruginosa [11]): inactive
- survival at 50 µM (Pseudomonas aeruginosa [12]): 87.1%
- inhibition (Pseudomonas aeruginosa [13]): inactive
- inhibition [14]: inactive
- inhibition [15]: Active
- Activity (Vero [16]): Toxic
- survival at 0.125 µg/mL (Pseudomonas aeruginosa [17]): 13.1%
- Activity [18]: Non-Toxic
- Activity (Pseudomonas aeruginosa [19]): Dose-Dependent Effect
- inhibition [20]: 69.9%
- Activity (Pseudomonas aeruginosa [21]): Active
- Activity (Pseudomonas aeruginosa [22]): Active
- Activity (Vero [23]): Non-Toxic
- survival at 50 µM (Pseudomonas aeruginosa [24]): 82.3%
- Activity (Pseudomonas aeruginosa [25]): Active
- Activity [26]: 22.4
- Activity (Pseudomonas aeruginosa [27]): Dose-Dependent Effect
- Kd [28]: 1100 nM
- Activity (Pseudomonas aeruginosa [29]): Active
- inhibition [30]: 30%
- Activity (Pseudomonas aeruginosa [31]): Active
- Activity (Pseudomonas aeruginosa [32]): Dose-Dependent Effect
- inhibition [33]: inactive
- inhibition [34]: inactive
- Activity (Pseudomonas aeruginosa [35]): inactive
- survival at 10 µM (Pseudomonas aeruginosa [36]): 35.7%
- Activity (Pseudomonas aeruginosa [37]): ~50%
- Activity (Pseudomonas aeruginosa [38]): 32.2%
- Activity (Pseudomonas aeruginosa [39]): Active
- inhibition (Pseudomonas aeruginosa [40]): inactive
- Activity (Pseudomonas aeruginosa [41]): 50.9%
- IC50 [42]: 2700 nM
- Survival (Pseudomonas aeruginosa [43]): 30 h
